According to patent US20130035256A1, “Chimeric Polypeptides Useful in Proximal and Dynamic High-Throughput Screening Methods” (ADDEX PHARMA SA, priority 2010, published 2013):
Structures can show the parent of a compound that is named as a salt. Marks after values point to notes of the source that are not given here. Each block holds one molecule with its values, some of them ahead of it.

Legend:
[1] = molecular target: T1, M4R (Homo sapiens, UniProt P08173); experiment: Calcium-based assay, calcium flux in cells co-expressing recombinant M4R and modified Gαq; type: cell-based; conditions: for Calcium-based assay % stim: compound tested alone; for Calcium-based assay % enh: in presence of EC20 value of Ach; for Calcium-based assay % inh: in presence of EC80 of Ach
T1 construct: expressed in transfected cells
T1 sequence (P08173 1-479): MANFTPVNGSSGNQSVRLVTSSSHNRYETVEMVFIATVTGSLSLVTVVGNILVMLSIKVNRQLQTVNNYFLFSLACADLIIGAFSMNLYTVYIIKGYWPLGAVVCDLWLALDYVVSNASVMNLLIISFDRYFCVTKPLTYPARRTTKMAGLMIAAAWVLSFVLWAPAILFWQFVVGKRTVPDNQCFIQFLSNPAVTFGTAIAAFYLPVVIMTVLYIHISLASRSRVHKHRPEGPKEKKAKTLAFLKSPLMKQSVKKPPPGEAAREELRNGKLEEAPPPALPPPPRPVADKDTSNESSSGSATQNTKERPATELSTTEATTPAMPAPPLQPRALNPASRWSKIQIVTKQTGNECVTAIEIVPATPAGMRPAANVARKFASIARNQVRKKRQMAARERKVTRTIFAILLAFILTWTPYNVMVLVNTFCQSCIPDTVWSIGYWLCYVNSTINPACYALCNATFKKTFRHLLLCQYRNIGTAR
Protocol: (§1) The assay of the present invention was compared with a state of the art calcium based assay. […] In calcium-based assay, a calcium flux is measured in cells co-expressing recombinant M4R and modified Gαq. In the assay in accordance with the present invention, BRET in measured in cells co-expressing a chimeric M4R according to RGLG-2 (construct and cell-line from FIG. 2C, Table 6) and FP-Gγ9 (as described in FIG. 10A). The data represent mean values and they are normalized to the maximal effect of the orthosteric agonist after the subtraction of the basal values.

[2] = molecular target: T2, chimeric M4R (RGLG-2) (Homo sapiens, UniProt P08173); experiment: BRET assay of the invention, cells co-expressing chimeric M4R (RGLG-2) and FP-Gγ9; type: cell-based; conditions: for Invention assay % stim: compound tested alone; for Invention assay % enh: in presence of EC20 value of Ach; for Invention assay % inh: in presence of EC80 of Ach; for activation of the chimeric M4R (BRET): increasing concentrations of ligand
T2 construct: ID; NOs; expressed in transfected cells
Protocol: The same cells as described for FIG. 10 A were used. […] The decrease of the signal below baseline in the PTX-treated condition confirms a constitutive activity that has been described for the M4R. […]
A typical experiment has the following sequence.
as §1

[3] = activity @ 30uM or 30 ug/ml, normalized to maximal effect of the orthosteric agonist

T2 sequence (P08173 with tags, fused parts or gaps): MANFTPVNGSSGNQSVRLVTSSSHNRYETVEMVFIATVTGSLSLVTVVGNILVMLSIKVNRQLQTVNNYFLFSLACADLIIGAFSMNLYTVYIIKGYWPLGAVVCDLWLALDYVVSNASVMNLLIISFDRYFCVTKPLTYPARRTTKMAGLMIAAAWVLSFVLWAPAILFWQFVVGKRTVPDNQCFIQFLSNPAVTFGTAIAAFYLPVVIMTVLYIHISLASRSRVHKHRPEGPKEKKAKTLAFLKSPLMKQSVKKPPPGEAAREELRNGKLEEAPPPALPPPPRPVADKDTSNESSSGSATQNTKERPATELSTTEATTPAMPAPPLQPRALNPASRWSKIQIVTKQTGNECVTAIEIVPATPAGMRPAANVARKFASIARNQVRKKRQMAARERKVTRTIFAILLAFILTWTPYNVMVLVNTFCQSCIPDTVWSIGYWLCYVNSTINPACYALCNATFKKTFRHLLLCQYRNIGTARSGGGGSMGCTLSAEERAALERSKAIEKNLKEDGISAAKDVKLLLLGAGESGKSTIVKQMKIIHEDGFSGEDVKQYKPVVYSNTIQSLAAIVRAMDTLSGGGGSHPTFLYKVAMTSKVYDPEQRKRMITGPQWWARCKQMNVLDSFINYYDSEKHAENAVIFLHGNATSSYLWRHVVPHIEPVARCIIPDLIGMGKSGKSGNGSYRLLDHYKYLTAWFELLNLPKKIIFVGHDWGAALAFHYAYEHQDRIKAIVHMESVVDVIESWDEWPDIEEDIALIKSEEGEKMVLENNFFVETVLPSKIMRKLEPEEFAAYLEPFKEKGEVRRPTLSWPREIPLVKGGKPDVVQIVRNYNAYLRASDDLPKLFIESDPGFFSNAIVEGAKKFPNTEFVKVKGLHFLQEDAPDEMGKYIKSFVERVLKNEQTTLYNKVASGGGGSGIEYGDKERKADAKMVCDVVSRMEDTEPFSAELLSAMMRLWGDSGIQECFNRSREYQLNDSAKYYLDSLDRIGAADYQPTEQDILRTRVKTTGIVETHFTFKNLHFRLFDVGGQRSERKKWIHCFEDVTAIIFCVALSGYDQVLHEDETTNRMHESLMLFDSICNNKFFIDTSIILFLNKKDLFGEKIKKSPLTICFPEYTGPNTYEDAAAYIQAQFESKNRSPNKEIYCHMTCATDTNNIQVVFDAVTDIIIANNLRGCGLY

SMILES: Cc1ccc2c(c1)C(=O)C1(O)CCN(c3ccccc3)C1=N2 (racemic) [(±)-Blebbistatin]
- Calcium-based assay % stim [1, 3]: 130.0%
- Calcium-based assay % enh [1, 3]: 115.1%
- Calcium-based assay % inh [1, 3]: −46.9%
- Invention assay % stim [2, 3]: −7.2%
- Invention assay % enh [2, 3]: −2.4%
- Invention assay % inh [2, 3]: 13.1%

SMILES: NCCOB(c1ccccc1)c1ccccc1 [2-APB]
- Calcium-based assay % stim [1, 3]: 3.7%
- Calcium-based assay % enh [1, 3]: 4.8%
- Calcium-based assay % inh [1, 3]: 30.3%
- Invention assay % stim [2, 3]: −4.7%
- Invention assay % enh [2, 3]: 6.3%
- Invention assay % inh [2, 3]: 10.5%

SMILES: CCCCCC(O)/C=C/C=O (stereo not shown) [4-Hydroxynonenal]
- Calcium-based assay % stim [1, 3]: 1.4%
- Calcium-based assay % enh [1, 3]: −7.3%
- Calcium-based assay % inh [1, 3]: 118.9%
- Invention assay % stim [2, 3]: −14.9%
- Invention assay % enh [2, 3]: −3.5%
- Invention assay % inh [2, 3]: 29.9%

SMILES: C[C@H]1CCC/C=C/[C@@H]2C[C@H](O)C[C@H]2[C@H](O)/C=C/C(=O)O1 [Brefeldin A]
- Calcium-based assay % stim [1, 3]: 5.2%
- Calcium-based assay % enh [1, 3]: 32.3%
- Calcium-based assay % inh [1, 3]: −19.5%
- Invention assay % stim [2, 3]: −2.5%
- Invention assay % enh [2, 3]: −1.9%
- Invention assay % inh [2, 3]: 12.7%

SMILES: CN(C)CCCn1cc(C2=C(c3c[nH]c4ccccc34)C(=O)NC2=O)c2ccccc21 [GF 109203X]
- Calcium-based assay % stim [1, 3]: 154.3%
- Calcium-based assay % enh [1, 3]: 84.3%
- Calcium-based assay % inh [1, 3]: −10.0%
- Invention assay % stim [2, 3]: 2.2%
- Invention assay % enh [2, 3]: 7.4%
- Invention assay % inh [2, 3]: 29.5%

SMILES: O=C1OC2(c3ccccc31)c1ccc(O)c(O)c1Oc1c2ccc(O)c1O [Gallein]
- Calcium-based assay % stim [1, 3]: 11.7%
- Calcium-based assay % enh [1, 3]: 42.9%
- Calcium-based assay % inh [1, 3]: −22.2%
- Invention assay % stim [2, 3]: 3.9%
- Invention assay % enh [2, 3]: 5.1%
- Invention assay % inh [2, 3]: 5.3%

SMILES: C[C@H](CCC(=O)O)C[C@H](C)C[C@H](C)C(=O)/C=C(\O)[C@H](C)C[C@H](C)C/C=C/[C@@H](C)[C@@H](O)[C@@H](C)[C@@H](O)C[C@@H]1CC[C@@](C)([C@H]2CC[C@@](C)([C@@H](C)O)O2)O1 [Ionomycin calcium salt]
- Calcium-based assay % enh ([1]; * @ 3uM or 3 ug/ml): 58.8* %
- Calcium-based assay % stim [1, 3]: 488.7%
- Calcium-based assay % inh [1, 3]: 112.2%
- Invention assay % stim [2, 3]: −11.8%
- Invention assay % enh [2, 3]: −2.5%
- Invention assay % inh [2, 3]: 14.6%

SMILES: COc1nc2sc(C(=O)NC3CC3)c(N)c2c(C)c1Cl [LY2033298]
- activation of the chimeric M4R (BRET) [2]: activation

SMILES: CCOC(=O)C1=C(C)NC(=S)NC1c1cccc(O)c1 (stereo not shown) [Monastrol]
- Calcium-based assay % stim [1, 3]: 4.1%
- Calcium-based assay % enh [1, 3]: 44.7%
- Calcium-based assay % inh [1, 3]: −16.7%
- Invention assay % stim [2, 3]: −3.0%
- Invention assay % enh [2, 3]: −0.1%
- Invention assay % inh [2, 3]: 7.0%

SMILES: CCN1C(=O)C=CC1=O [N-Ethylmaleimide]
- Calcium-based assay % stim [1, 3]: 3.8%
- Calcium-based assay % enh [1, 3]: 0.2%
- Calcium-based assay % inh [1, 3]: 96.9%
- Invention assay % stim [2, 3]: −3.4%
- Invention assay % enh [2, 3]: 12.4%
- Invention assay % inh [2, 3]: 16.5%

Now from value to molecule:

- Calcium-based assay % stim [1, 3]: 26.8%
- Calcium-based assay % enh [1, 3]: 77.8%
- Calcium-based assay % inh [1, 3]: −66.5%
- Invention assay % stim [2, 3]: −8.2%
- Invention assay % enh [2, 3]: 4.7%
- Invention assay % inh [2, 3]: 11.4%
SMILES: COC(=O)C1=C(C)NC(C)=C([N+](=O)[O-])[C@@H]1c1ccccc1C(F)(F)F [(R)-(+)-Bay K 8644]

- Calcium-based assay % stim [1, 3]: 16.1%
- Calcium-based assay % enh [1, 3]: 59.8%
- Calcium-based assay % inh [1, 3]: −65.0%
- Invention assay % stim [2, 3]: −8.0%
- Invention assay % enh [2, 3]: −3.6%
- Invention assay % inh [2, 3]: 14.6%
SMILES: COC(=O)C1=C(C)NC(C)=C([N+](=O)[O-])[C@H]1c1ccccc1C(F)(F)F [(S)-(−)-Bay K 8644]

- activation of the chimeric M4R (BRET) [2]: lack of activation
SMILES: Nc1ncnc2c1ncn2[C@@H]1O[C@H](COP(=O)(O)OP(=O)(O)OP(=O)(O)O)[C@@H](O)[C@H]1O [ATP]

- Calcium-based assay % stim [1, 3]: 18.1%
- Calcium-based assay % enh [1, 3]: 62.6%
- Calcium-based assay % inh [1, 3]: −29.2%
- Invention assay % stim [2, 3]: 1.3%
- Invention assay % enh [2, 3]: 8.3%
- Invention assay % inh [2, 3]: 1.5%
SMILES: Cn1c2c(c(=O)n(C)c1=O)C(c1cccc(Br)c1)C1=C(N2)c2ccccc2C1=O (stereo not shown) [BPIPP]

- Calcium-based assay % stim [1, 3]: 13.4%
- Calcium-based assay % enh [1, 3]: 92.3%
- Calcium-based assay % inh [1, 3]: −73.7%
- Invention assay % stim [2, 3]: −8.0%
- Invention assay % enh [2, 3]: 23.9%
- Invention assay % inh [2, 3]: −3.5%
SMILES: O=C(N/N=C/c1ccc(O)c(O)c1)c1cc2ccccc2cc1O [Dynamin Inhibitor I]

- Calcium-based assay % stim [1, 3]: 48.9%
- Calcium-based assay % enh [1, 3]: 59.7%
- Calcium-based assay % inh [1, 3]: −66.6%
- Invention assay % stim [2, 3]: −8.4%
- Invention assay % enh [2, 3]: 7.5%
- Invention assay % inh [2, 3]: 10.0%
SMILES: COC(=O)c1c(C)[nH]c(C)c1C(=O)c1ccccc1Cc1ccccc1 [FPL 64176]

- Calcium-based assay % stim [1, 3]: 57.8%
- Calcium-based assay % enh [1, 3]: 58.3%
- Calcium-based assay % inh [1, 3]: −22.4%
- Invention assay % stim [2, 3]: −5.0%
- Invention assay % enh [2, 3]: −3.6%
- Invention assay % inh [2, 3]: 11.8%
SMILES: C=C[C@@]1(C)CC(=O)[C@]2(O)[C@@]3(C)[C@@H](O)CCC(C)(C)[C@@H]3[C@H](O)[C@H](OC(C)=O)[C@@]2(C)O1 [FSK]

- Calcium-based assay % stim [1, 3]: 879.7%
- Calcium-based assay % enh [1, 3]: 151.4%
- Calcium-based assay % inh [1, 3]: −23.8%
- Invention assay % stim [2, 3]: −6.8%
- Invention assay % enh [2, 3]: 2.8%
- Invention assay % inh [2, 3]: 13.5%
SMILES: O=C1Nc2ccc(I)cc2/C1=C/c1cc(Br)c(O)c(Br)c1 [GW 5074]

- Calcium-based assay % stim ([1]; * @ 3uM or 3 ug/ml): 8.1* %
- Calcium-based assay % enh ([1]; * @ 3uM or 3 ug/ml): 39.4* %
- Invention assay % stim ([2]; * @ 3uM or 3 ug/ml): −0.8* %
- Invention assay % enh ([2]; * @ 3uM or 3 ug/ml): −1.2* %
- Invention assay % inh ([2]; * @ 3uM or 3 ug/ml): 15.8* %
SMILES: CN([C@@H](Cc1ccc(OS(=O)(=O)c2cccc3cnccc23)cc1)C(=O)N1CCN(c2ccccc2)CC1)S(=O)(=O)c1cccc2cnccc12 [KN-62]
